Test results as given in US20090123377A1, “Method for Testing Substances or Mixtures of Substances,Use of Said Method and Corresponding Test Kits” (BASF AKTIENGESELLSCHAFT, priority 2005, published 2009).
Where two headings read alike, the source gives them in different places.

Tests used:
[1] = system: L-FABP; conditions: rat, in vivo
[2] = system: liver fatty acid binding protein (L-FABP); assay: Proteomic analysis (2D gel electrophoresis) of L-FABP expression in liver of exposed rats; conditions: for L-FABP (PHEN_M_ID=3368, ETHI_F_ID=4302, HEXA_F_ID=4425) spot under the influence of treatment: 2D gel, rat liver, after 10 d (RUN2), PHEN_M male, ETHI_F and HEXA_F female rats; for amount of L-FABP in the liver, early change: after only a few hours of exposure, male animals (phenobarbital), females (alpha-hexachlorocyclohexane); for expression in the liver of L-FABP (ETHI_F_ID 4302) compared with the controls: longer exposure time and higher dosage, dose-dependent, statistical analysis of 2D gels
[3] = system: liver fatty acid binding protein (L-FABP); conditions: rat, in vivo

With Cc1ccc(N)cc1N [2,4-diaminotoluene] the “L-FABP level by Western blotting” value [1] was “no change in the L-FABP level”.
For Cc1c(N)cccc1N [2,6-diaminotoluene], the “L-FABP level by Western blotting” value [1] was “no change in the L-FABP level”.
Cl[C@H]1[C@H](Cl)[C@H](Cl)[C@@H](Cl)[C@H](Cl)[C@H]1Cl [alpha-hexachlorocyclohexane] was tested, and the “L-FABP (PHEN_M_ID=3368, ETHI_F_ID=4302, HEXA_F_ID=4425) spot under the influence of treatment” value (shortened to “L-FABP … of treatment”) [2] was “disappears”, the “amount of L-FABP in the liver, early change” value [2] was “changed” and the “expression in the liver of L-FABP (ETHI_F_ID 4302) compared with the controls” value (shortened to “expression … compared with the controls”) [2] was “significantly less expression”. The “L-FABP level by Western blotting” value [1] was “confirm the results of the proteomic analysis”.
C#C[C@]1(O)CC[C@H]2[C@@H]3CCc4cc(O)ccc4[C@H]3CC[C@@]21C [ethinylestradiol] was tested, and the “L-FABP … of treatment” value [3] was “disappears” and the “expression … compared with the controls” value [3] was “significantly less expression”.
In the case of c1ccoc1 [furan], the “L-FABP level by Western blotting” value [1] is reported as “decrease in L-FABP”.
With CCC1(c2ccccc2)C(=O)NC(=O)NC1=O [phenobarbital] the “L-FABP … of treatment” value [2] was “disappears”, the “amount of L-FABP in the liver, early change” value [2] was “changed” and the “expression … compared with the controls” value [2] was “significantly less expression”. The “L-FABP level by Western blotting” value [1] was “confirm the results of the proteomic analysis”.
With ClC(Cl)(Cl)Cl [tetrachloromethane] the “L-FABP level by Western blotting” value [1] was “decrease in L-FABP”.
